According to patent US9284272B2, “Inhibitors of histone methyltransferase G9a” (AbbVie Inc., priority 2014, dated 2016):
Where “and” joins values, the source holds several entries; their conditions need not be identical. Equal entries are not always repeated. Where two headings read alike, the source gives them in different places.

Legend:
[1] = Cytotoxicity, CellTiter Glo; assay type: cell-based; conditions: human, MHH-65-1 cells, 7-day proliferation, neural crest derived lines
[2] = Cytotoxicity, CellTiter Glo; assay type: cell-based; conditions: human, IMR-32 cells, 12-day proliferation, neural crest derived lines
H3K9me2 [3] = assay: PK/PD study, reduction in H3K9me2 in MV4;11 xenograft; assay type: in vivo, SCID/bg mice; conditions: for reduction in H3K9me2: 30 mg/kg/day osmotic mini-pump, relative to vehicle
Source text: Specifically, subcutaneous MV4;11 xenografts were implanted in SCID/bg mice and allowed to grow to 200 mm^3. […] In particular, by day 14, dimethylation of lysine 9 of histone H3 in the tumor tissue was reduced by 46 percent as compared to the vehicle.

[4] = Cytotoxicity, CellTiter Glo; assay type: cell-based; conditions: human, KMS12 cells, 5-day proliferation
in vitro = assay type: cell-based; conditions: PH-1; 7-day proliferation, neural crest derived lines; read-out: IC50 cytotoxicity
H3K9me2 [5] = assay: Cellular immunostaining (In-Cell Western), H3K9Me2 antibody immunofluorescence in PC3 cells; assay type: cell-based, human; conditions: for H3K9me2 % inhibition, single well of triplicate / inhibition at 0.03 µM / inhibition at 0.1 µM / inhibition at 0.3 µM / inhibition at 1 µM / inhibition at 3 µM: 72 hours; for inhibition at 0.03 µM / inhibition at 0.1 µM / inhibition at 0.3 µM / inhibition at 1 µM / inhibition at 3 µM: Homo sapiens, PC-3, 72 h
Method: For comparison, the known G9a inhibitor UNC0638 (see structure in FIG. 1) was evaluated in this study concurrently.
Human PC3 cells (ATCC, Manassas, Va.) were grown in RPMI+10% Fetal Bovine Serum and plated at 5,000 cells per well in a 96-well plate. The following day compounds and DMSO controls were added in triplicate at the indicated concentrations. Cells were fixed following incubation at 37° C. for 72 hours with 10% formaldehyde and then permeabilized with 0.1% Triton X-100. Cells were then washed with PBS and blocked with 0.1% BSA/PBS solution. Mouse anti-H3K9me2 (1:200, AbCam #1220, Cambridge, Mass.) and rabbit anti-Histone H3 (1:500, Cell Signaling Technology #4499, Danvers, Mass.) primary antibodies in 0.3% BSA were then added together to each well and incubated overnight at 4° C. The following day cells were washed in PBS-T (PBS with 0.1% Tween) followed by addition of anti-mouse (IR800) and anti-rabbit (IR700) secondary antibodies (LI-COR Biosciences, Lincoln, Nebr.) and incubated for one hour at room temperature. Cells were then washed with PBS-T followed by PBS and liquid was removed from all wells. The plate was scanned using both the 700 nm (anti-rabbit detection) and 800 nm (anti-mouse detection) channels on the Odyssey Imaging System (LI-COR Biosciences, Lincoln, Nebr.). Data was quantified using the LI-COR imaging suite and graphed as % inhibition H3K9me2/total H3/well compared to DMSO control wells. Wells treated in triplicate were averaged for each indicated concentration and error bars represent the standard deviation (n=3).

For COc1cc2c(cc1OCCCN1CCCC1)N=C(N)C21CCC1 [Example 7, 5′-methoxy-6′-(3-(pyrrolidin-1-yl)propoxy)spiro[cyclobutane-1,3′-indol]-2′-amine], the IC50 at 7 day [1] was > 10 µM, the IC50 at 12 day [2] was > 10 µM and the “reduction in H3K9me2” value (H3K9me2 [3]; Day 2) was 0%. The “reduction in H3K9me2” value (H3K9me2 [3]; Day 7) was 25%, the “reduction in H3K9me2” value (H3K9me2 [3]; Day 14) was 46% and the “reduction of dimethylation of lysine 9 of histone H3 in the tumor tissue” value (H3K9me2 [3]; day 14, compared to vehicle) was 46%. The IC50 at 5 day [4] was > 10 µM, the IC50 at 7 day (in vitro) was > 10 µM and the “reduction of cellular levels of H3K9Me2” value (H3K9me2 [5]; 3 μM) was ~50%. For the same compound, the “H3K9me2 % inhibition, single well of triplicate” value (shortened to “H3K9me2 % inhibition”) (H3K9me2 [5]; 0.03 uM) was 15.08% and 10.18%, the “H3K9me2 % inhibition” value (H3K9me2 [5]; 0.1 uM) was 24.63% and 27.83% and the “H3K9me2 % inhibition” value (H3K9me2 [5]; 0.3 uM) was 34.47% and 40.35%. For the same compound, the “H3K9me2 % inhibition” value (H3K9me2 [5]; 1 uM) was 43.83% and 45.11%, the “H3K9me2 % inhibition” value (H3K9me2 [5]; 3 uM) was 47.77% and 48.92% and the inhibition at 0.03 µM (H3K9me2 [5]; 0.03 uM, n=3, read-out: H3K9me2 % inhibition, average) was 12%. For the same compound, the inhibition at 0.03 µM (H3K9me2 [5]; 0.03 uM, read-out: H3K9me2 % inhibition, single well of triplicate) was 10.8%, the inhibition at 0.1 µM (H3K9me2 [5]; 0.1 uM, n=3, read-out: H3K9me2 % inhibition, average) was 24.3% and the inhibition at 0.1 µM (H3K9me2 [5]; 0.1 uM, read-out: H3K9me2 % inhibition, single well of triplicate) was 20.6%. It also gave an inhibition at 0.3 µM (H3K9me2 [5]; 0.3 uM, n=3, read-out: H3K9me2 % inhibition, average) of 37.1%, an inhibition at 0.3 µM (H3K9me2 [5]; 0.3 uM, read-out: H3K9me2 % inhibition, single well of triplicate) of 36.6% and an inhibition at 1 µM (H3K9me2 [5]; 1 uM, n=3, read-out: H3K9me2 % inhibition, average) of 44.4%. For the same compound, the inhibition at 1 µM (H3K9me2 [5]; 1 uM, read-out: H3K9me2 % inhibition, single well of triplicate) was 44.2%, the inhibition at 3 µM (H3K9me2 [5]; 3 uM, n=3, read-out: H3K9me2 % inhibition, average) was 47.5% and the inhibition at 3 µM (H3K9me2 [5]; 3 uM, read-out: H3K9me2 % inhibition, single well of triplicate) was 45.9%. The “levels of total histone 3, H3K27Me3, H3K36Me2, H3K4me2, H3K4me3 and H3K9me3” value (H3K9me2 [5]; similar conditions) was “unaltered” and the “cell viability as measured by total histone H3” value (H3K9me2 [5]; versus no treatment) was “No difference in cell viability”.
